The target of one assay is human mPGES-1 (Homo sapiens (Human), UniProt O14684). In words: mPGES-1 inhibitory activity test. Format: biochemical. To be noted: microsomes of CHO-K1 cells expressing human mPGES-1, PGH2 1 μM, PGE2 by HTRF; read-out: mPGES-1 inhibition (IC50 nM). As for the experimental part:
mPGES-1 microsomal specimens were prepared by transiently transfecting CHO-K1 cells (DS Pharma Biomedical Co. Ltd) with a plasmid encoding human mPGES-1 cDNA using FuGENE 6 Transfection Reagent (Promega). The prepared mPGES-1 microsome specimens were diluted in potassium phosphate buffer of pH 7.4 comprising 2.5 mM reduced glutathione (Sigma-Aldrich), DMSO solution of a test compound or DMSO was added to a final concentration of 1% of DMSO, and then incubated at 4° C. for 20 minutes. The enzymatic reaction was then initiated by adding a solution of PGH2 (Cayman chemical) substrate of a final concentration 1 μM and incubated at 4° C. for 60 seconds. The reaction was terminated by adding a solution of ferric chloride (STREM CHEMICALS) and citric acid (Wako Pure Chemical Industries) salt to a final concentration of 5 mg/mL and 250 mM, respectively. The formed PGE2 was quantified using the HTRF kit (Cisbio International). Solutions without the test compound were used as positive controls, and solutions without the test compound and microsomal specimens were used as negative controls. 100% activity was defined as production of PGE2 in the positive control minus that in the negative control. The percentage inhibition of production of PGE2 at final concentrations of 10 nM and 100 nM of the test compound was then calculated, or IC50 values were determined using standard methods.
On the technique in general: TR-FRET usually uses a lanthanide donor and a delayed reading to cut background.

The subject of the next assay is human A549 cells. In words: Inhibition test of PGE2 production using human A549 cells. To be noted: IL-1β stimulated A549 cells, 24 h, PGE2 by HTRF, read-out: A549 cell inhibition of PGE2 production IC50. The format is cell-based. As for the experimental part: 100 μL of RPMI medium (Sigma) comprising 10% FBS and human A549 cells was seeded in a 96-well plate to […] cells per well, and incubated overnight. The medium was then removed and washed with phosphate-buffered saline, and added to a DMSO solution of the test compound or RPMI medium comprising 3% FBS with DMSO to a final concentration of 0.1% DMSO. After incubation for 60 minutes, IL-1P (5 ng/well, BioLegend) was added to the solution. After incubation at 37° C. for 24 h, PGE2 in the medium was quantified using the HTRF kit (Cisbio International) and PGF2a was also quantified using the EIA kit (Cayman chemical). Solutions without the test compound were used as positive controls, and solutions without the test compound and IL-1β were used as negative controls. 100% activity was defined as production of PGE2 and PGF2a in the positive control minus those in the negative control. IC50 values were then determined using standard methods.

Where a name gives a salt, the structure may show the parent alone. Some results are limits rather than exact numbers.

Broadly, the IC50 is the concentration that gives 50% inhibition.

human mPGES-1, sequence (O14684 whole entry): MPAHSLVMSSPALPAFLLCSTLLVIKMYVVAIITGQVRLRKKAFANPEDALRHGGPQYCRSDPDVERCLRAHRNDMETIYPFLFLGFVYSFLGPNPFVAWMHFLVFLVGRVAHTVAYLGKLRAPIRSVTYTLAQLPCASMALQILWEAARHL

Turning to `O=C(Nc1cccc2c1cnn2-c1ccc(C(F)(F)F)nc1)c1cc(CNC(=O)C2CC2)ccc1Cl` [Example 12, 2-Chloro-5-{[(cyclopropylcarbonyl)amino]methyl}-N-{1-[6-(trifluoromethyl)pyridin-3-yl]-1H-indazol-4-yl}benzamide], the 50% inhibitory concentration (IC50) at human mPGES-1 came out at 2.7 nM; with human A549 cells it was 1.1 nM.
For `COc1ccccc1-n1ncc2c(NC(=O)c3cc(CNC(=O)C4CC4)ccc3Cl)cccc21` [Example 13, 2-Chloro-5-{[(cyclopropylcarbonyl)amino]methyl}-N-[1-(2-methoxyphenyl)-1H-indazol-4-yl]benzamide], the results for the IC50 on human mPGES-1 and with human A549 cells were 2 nM and 505 nM, respectively.
For the molecule `CC(C)(C)c1ccc(-n2ncc3c(NC(=O)c4cc(CNC(=O)C5CC5)ccc4Cl)cccc32)cc1` [Example 14, N-[1-(4-tert-butylphenyl)-1H-indazol-4-yl]-2-chloro-5-{[(cyclopropylcarbonyl)amino]methyl}benzamide], the IC50 on human mPGES-1 turned out to be 1.1 nM; in the assay with human A549 cells, 0.4 nM.
Take `Cc1c(Cl)cccc1-n1ncc2c(NC(=O)c3cc(CNC(=O)C4CC4)ccc3Cl)cccc21` [Example 15, 2-Chloro-N-[1-(3-chloro-2-methylphenyl)-1H-indazol-4-yl]-5-{[(cyclopropylcarbonyl)amino]methyl}benzamide]: the IC50 was found to be 5.6 nM on human mPGES-1 and 7.8 nM with human A549 cells.
On to `O=C(Nc1cccc2c1cnn2-c1cccc(C(F)(F)F)c1)c1c(F)ccc(CNC(=O)C2CC2)c1F` [Example 16, 3-{[(Cyclopropylcarbonyl)amino]methyl}-2,6-difluoro-N-{1-[3-(trifluoromethyl)phenyl]-1H-indazol-4-yl}benzamide], for which the figures for the half-maximal inhibitory concentration (IC50) at human mPGES-1 and in the assay on human A549 cells were 6.3 nM and 9.7 nM, respectively.
Consider `O=C(Nc1cccc2c1cnn2-c1ccc(C(F)(F)F)cc1)c1cc(CNC(=O)C(F)(F)F)ccc1Cl` [Example 17, 2-Chloro-5-{[(trifluoroacetyl)amino]methyl}-N-{1-[4-(trifluoromethyl)phenyl]-1H-indazol-4-yl}benzamide], for which the values for the IC50 at human mPGES-1 and in the assay on human A549 cells were 17 nM and 1.6 nM, respectively.
The matching figures for `CC(=O)NCc1ccc(Cl)c(C(=O)Nc2cccc3c2cnn3-c2ccc(C(F)(F)F)cc2)c1` [Example 18, 5-[(Acetylamino)methyl]-2-chloro-N-{1-[4-(trifluoromethyl)phenyl]-1H-indazol-4-yl}benzamide]: 84.7 nM and 52.4 nM.
For `CCC(=O)NCc1ccc(Cl)c(C(=O)Nc2cccc3c2cnn3-c2ccc(C(F)(F)F)cc2)c1` [Example 19, 2-Chloro-5-[(propanoylamino)methyl]-N-{1-[4-(trifluoromethyl)phenyl]-1H-indazol-4-yl}benzamide], the IC50 was 6.1 nM at human mPGES-1 and 1 nM in the assay with human A549 cells.
The matching figures for `CC(C)(C)CC(=O)NCc1ccc(Cl)c(C(=O)Nc2cccc3c2cnn3-c2ccc(C(F)(F)F)cc2)c1` [Example 20, 2-Chloro-5-{[(3,3-dimethylbutanoyl)amino]methyl}-N-{1-[4-(trifluoromethyl)phenyl]-1H-indazol-4-yl}benzamide]: under 1 nM and 2.8 nM.
The matching figures for `COCC(=O)NCc1ccc(Cl)c(C(=O)Nc2cccc3c2cnn3-c2ccc(C(F)(F)F)cc2)c1` [Example 21, 2-Chloro-5-{[(methoxyacetyl)amino]methyl}-N-{1-[4-(trifluoromethyl)phenyl]-1H-indazol-4-yl}benzamide]: 3.8 nM and 68 nM.
The matching figures for `O=C(NCc1ccc(Cl)c(C(=O)Nc2cccc3c2cnn3-c2ccc(C(F)(F)F)cc2)c1)c1ccccc1` [Example 22, 2-Chloro-5-{[(phenylcarbonyl)amino]methyl}-N-{1-[4-(trifluoromethyl)phenyl]-1H-indazol-4-yl}benzamide]: 3.3 nM and 12.8 nM.
Turning to `O=C(Nc1cccc2c1cnn2-c1ccc(C(F)(F)F)cc1)c1cc(CNS(=O)(=O)C2CC2)ccc1Cl` [Example 23, 2-Chloro-5-{[(cyclopropylsulfonyl)amino]methyl}-N-{1-[4-(trifluoromethyl)phenyl]-1H-indazol-4-yl}benzamide], the figures for the half-inhibitory concentration (IC50) at human mPGES-1 and in the assay on human A549 cells were 5.2 nM and 1.5 nM, respectively.
The matching figures for `CN(C)CC(=O)NCc1ccc(Cl)c(C(=O)Nc2cccc3c2cnn3-c2ccc(C(F)(F)F)cc2)c1` [Example 24, 2-Chloro-5-{[(N,N-dimethylglycyl)amino]methyl}-N-{1-[4-(trifluoromethyl)phenyl]-1H-indazol-4-yl}benzamide hydrochloride]: 57.1 nM and 46.4 nM.
`N#CC1(C(=O)NCc2ccc(Cl)c(C(=O)Nc3cccc4c3cnn4-c3ccc(C(F)(F)F)cc3)c2)CC1` [Example 25, 2-Chloro-5-({[(1-cyanocyclopropyl)carbonyl]amino}methyl)-N-{1-[4-(trifluoromethyl)phenyl]-1H-indazol-4-yl}benzamide]: the IC50 on human mPGES-1 came out at 3.9 nM; in the assay on human A549 cells it was 8.6 nM.
The matching figures for `O=C(Nc1cccc2c1cnn2-c1ccc(C(F)(F)F)cc1)c1cc(CNC(=O)C2(C(F)(F)F)CC2)ccc1Cl` [Example 26, 2-Chloro-5-[({[1-(trifluoromethyl)cyclopropyl]carbonyl}amino)methyl]-N-{1-[4-(trifluoromethyl)phenyl]-1H-indazol-4-yl}benzamide]: 1.6 nM and 2.3 nM.
The matching figures for `O=C(Nc1cccc2c1cnn2-c1ccc(C(F)(F)F)cc1)c1cc(CNC(=O)C2(O)CC2)ccc1Cl` [Example 27]: 10 nM and 4.4 nM.
Regarding `CC(C)(CO)C(=O)NCc1ccc(Cl)c(C(=O)Nc2cccc3c2cnn3-c2ccc(C(F)(F)F)cc2)c1` [Example 28, 2-Chloro-5-{[(3-hydroxy-2,2-dimethylpropanoyl)amino]methyl}-N-{1-[4-(trifluoromethyl)phenyl]-1H-indazol-4-yl}benzamide], the IC50 on human mPGES-1 was 1.9 nM; in the assay on human A549 cells, 5.8 nM.
The matching figures for `O=C(Nc1cccc2c1cnn2-c1ccc(C(F)(F)F)cc1)c1cc(CNC(=O)C2CCC2)ccc1Cl` [Example 29, 2-Chloro-5-{[(cyclobutylcarbonyl)amino]methyl}-N-{1-[4-(trifluoromethyl)phenyl]-1H-indazol-4-yl}benzamide]: 4.5 nM and 6.7 nM.
Consider `O=C(Nc1cccc2c1cnn2-c1ccc(C(F)(F)F)cc1)c1cc(CNC(=O)C2CCCC2)ccc1Cl` [Example 30, 2-Chloro-5-{[(cyclopentylcarbonyl)amino]methyl}-N-{1-[4-(trifluoromethyl)phenyl]-1H-indazol-4-yl}benzamide], for which the IC50 at human mPGES-1 stood at 5.5 nM; in the assay on human A549 cells, 2.6 nM.
The matching figures for `O=C(Nc1cccc2c1cnn2-c1ccc(C(F)(F)F)cc1)c1cc(CNC(=O)C2CCCCC2)ccc1Cl` [Example 31, 2-Chloro-5-{[(cyclohexylcarbonyl)amino]methyl}-N-{1-[4-(trifluoromethyl)phenyl]-1H-indazol-4-yl}benzamide]: 1.6 nM and 5.5 nM.
As to `O=C(Nc1cccc2c1cnn2-c1ccc(C(F)(F)F)cc1)c1cc(CNC(=O)C23CC4CC(CC(C4)C2)C3)ccc1Cl` [Example 32, N-[4-chloro-3-({1-[4-(trifluoromethyl)phenyl]-1H-indazol-4-yl}carbamoyl)benzyl]tricyclo[3.3.1.1^3,]decane-1-carboxamide], the IC50 at human mPGES-1 came to 23 nM; with human A549 cells, 12.1 nM.

For the origin of these results see patent US20250059172A1, “INDAZOLE COMPOUND AND PHARMACEUTICAL” (NIPPON SHINYAKU CO., LTD., priority 2021, published 2025).
